From PubChem BioAssay (NCI) come the findings set out here.

Test in all cases: NCI-60 cell line screen, 48 h
The subject of assay [1] is MCF7 breast.
For assay [2], the system named is UACC-257 melanoma.
The subject of assay [3] is HCT-15 colon.
The subject of assay [4] is PC-3 prostate.
For assay [5], the system named is MALME-3M melanoma.
Assay [6] relates to HOP-62 NSCLC.
For assay [7], the system named is CCRF-CEM leukemia.
Assay [8] deals with U251 CNS.

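Results reflect a 48-hour exposure of cells in 96-well plates to compound at five concentrations. GI50: concentration for 50% inhibition of growth. At the TGI there is no net growth.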

As to `FC(F)(F)c1ccc(-c2cnc(-c3ncon3)nc2NC2CCCCCC2)cc1`, the GI50 in assay [1] is 31.6 µM; in assay [2] it was 53.2 µM; in assay [3], 34.3 µM; in assay [4] it was 24.6 µM; in assay [5], 49.8 µM; in assay [6], 76.8 µM. The GI50 in assay [7] is 22.9 µM. In addition, the TGI was above 100 µM in assay [1]; above 100 µM in assay [2]; above 100 µM in assay [3]; 86.5 µM in assay [4]; above 100 µM in assay [5]; above 100 µM in assay [6]. In assay [7], this compound displayed a TGI of 60.4 µM.

For the compound `N#Cc1c(N2CCOCC2)nc(=S)[nH]c1-c1ccco1`, the GI50 in assay [1] was 2.12 µM; in assay [2] it was 22.4 µM; in assay [3], 6.2 µM; in assay [8], 20.2 µM; in assay [4], 0.19 µM; in assay [5] it was 2.18 µM. Moreover, the results for the GI50 in assay [6] and in assay [7] were 2.95 µM and 5.52 µM, respectively. Also, the TGI is above 100 µM in assay [1]; above 100 µM in assay [2]; above 100 µM in assay [3]; above 100 µM in assay [8]; 3.17 µM in assay [4]; 8.18 µM in assay [5]. Also, the results for the TGI in assay [6] and in assay [7] were 9.16 µM and 52 µM, respectively.

Turning to `CCCN(CCS(C)(=O)=O)Cc1ccc(-c2ccc3ncnc(Nc4ccc(OCc5cccc(F)c5)c(Cl)c4)c3c2)o1`, the GI50 in assay [1] is above 20.2 µM; in assay [2], above 25 µM; in assay [3], above 25 µM; in assay [8] it was above 25 µM; in assay [4], above 25 µM; in assay [5], above 25 µM. Moreover, the GI50 was above 25 µM in assay [6] and 7.39 µM in assay [7]. The TGI in assay [1], in assay [2], in assay [3], in assay [8], in assay [4] and in assay [5] was above 25 µM each time. The TGI in assay [6] and in assay [7] was above 25 µM throughout.

Consider `COc1cc2c3c(n(C)c(=O)c2cc1OC)-c1cc2c(cc1/C3=C\CCCCN1C(=O)c3ccccc3C1=O)OCO2`, for which the GI50 in assay [1] was 10.8 µM; in assay [2] it was 23.4 µM; in assay [3], 14.8 µM; in assay [8], 10.6 µM; in assay [4], 10.5 µM; in assay [6] it was 17.4 µM. In addition, the GI50 in assay [7] is 9.71 µM. The TGI was 53.9 µM in assay [1]; above 100 µM in assay [2]; 50.5 µM in assay [3]; 25.8 µM in assay [8]; 51.6 µM in assay [4]; 70.4 µM in assay [6]. For the same compound, the TGI in assay [7] was determined as 43.7 µM.

Regarding `CCCCCCCCCCCCCCCCCC1=NCCN1CCOC1=C(Cl)C(=O)c2ccccc2C1=O`, the GI50 in assay [2] is 1.83 µM; in assay [8] it was 1.87 µM; in assay [4], 1.85 µM; in assay [5], 1.95 µM; in assay [6], 1.77 µM; in assay [7] it was 0.527 µM. For the same compound, the TGI was 3.3 µM in assay [2]; 3.67 µM in assay [8]; 4.27 µM in assay [4]; 4.13 µM in assay [5]; 3.27 µM in assay [6]; 7.17 µM in assay [7].

With `CO[C@H]1CC(O[C@@H]2/C(C)=C/C[C@@H]3C[C@@H](C[C@]4(C=C[C@H](C)[C@@H](C5CCCCC5)O4)O3)OC(=O)[C@@H]3C=C(C)[C@@H](O)[C@H]4OC/C(=C\C=C\[C@@H]2C)[C@]43O)O[C@@H](C)C1O[C@H]1C[C@H](OC)[C@@H](O)[C@H](C)O1` (some centres not stated), the GI50 is 1.82 µM in assay [1], 1.08 µM in assay [4], 1.73 µM in assay [6] and 1.88 µM in assay [7]. Besides, the TGI in assay [1] turned out to be 5.84 µM; in assay [4] it was 2.68 µM; in assay [6], 3.22 µM; in assay [7], 4.4 µM.

Regarding `COc1ccc(-c2[nH]c3ccccc3c2-c2ccc(OC)cc2)cc1`, the GI50 is 2.87 µM in assay [1]; 7.22 µM in assay [2]; 3.56 µM in assay [3]; 4.54 µM in assay [8]; 4.07 µM in assay [4]; 10.2 µM in assay [6]. The GI50 in assay [7] was 2.85 µM. Further, the TGI amounted to 12.4 µM in assay [1]; 23.2 µM in assay [2]; 14.1 µM in assay [3]; 16.8 µM in assay [8]; 25.3 µM in assay [4]; 26.2 µM in assay [6]. The TGI in assay [7] is above 100 µM.

`O=C(/C=C\c1cccc([N+](=O)[O-])c1)/C=C/c1cccc([N+](=O)[O-])c1`: the GI50 in assay [1] was 0.655 µM; in assay [2], 21.4 µM; in assay [3], 5.1 µM; in assay [8] it was 2.06 µM; in assay [4], 3.17 µM; in assay [5] it was 37.9 µM. Besides, the TGI in assay [1] was 6.68 µM; in assay [2], above 100 µM; in assay [3], above 100 µM; in assay [8] it was 5.21 µM; in assay [4], above 100 µM; in assay [5], above 100 µM.

Consider `O=C(Nc1ccc(OCc2nnc(-c3ccc(Cl)cc3)o2)c(F)c1)Nc1ccc(Cl)c(C(F)(F)F)c1`, for which the GI50 in assay [1] is 1.92 µM; in assay [2] it was 2.71 µM; in assay [3], 2.03 µM; in assay [8], 1.88 µM; in assay [4], 1.84 µM; in assay [5] it was 2.4 µM. Further, the GI50 in assay [6] is 0.793 µM. Also, the TGI in assay [1] was 7.7 µM; in assay [2], 11.1 µM; in assay [3], 10.9 µM; in assay [8], 5.03 µM; in assay [4], 7.87 µM; in assay [5], 6.33 µM. The compound also gave a TGI in assay [6] of 5.84 µM.

On to `O=C1c2ccccc2-c2cc([N+](=O)[O-])c([N+](=O)[O-])cc21`, for which the TGI in assay [1] turned out to be 2.4 µM; in assay [2], 2.74 µM; in assay [8], 2.93 µM; in assay [4] it was 2.93 µM; in assay [5], 4.95 µM; in assay [6] it was 3.13 µM. Also, in assay [7], the TGI amounted to 0.958 µM.
